Experiment: phase II study in acute leukemia: toxicity (NCI CTCAE version 3.0)
Assay type: in vivo, human
Method: The study was approved by the Institutional Review Board (IRB) at each participating institution and was conducted in accordance with the Declaration of Helsinki and in compliance with International Conference on Harmonization Good Clinical Practice Guidelines. Written informed consent was obtained from all patients before study enrollment.
Each cycle lasted 21 days. Patient could continue treatment on the study in the absence of disease progression or unacceptable toxicity. The next cycle of therapy could start if non-hematologic toxicity from previous cycle recovered to ≤grade 1, and dose delay of up to 3 weeks was allowed for recovery. Permanent dose reduction was required for any ≥grade 3 clinically significant non-hematologic adverse event (70 mg/m^2 → 50 mg/m^2; 50 mg/m^2 → 40 mg/m^2; 40 mg/m^2 → 30 mg/m^2; 30 mg/m^2 → discontinue). To allow for continued treatment of subjects whose cytopenias were due to leukemia and not due to drug toxicity, subsequent cycles of treatment were allowed if absolute neutrophil count (ANC) ≥0.5 × 10^9/L or for ANC <0.5 × 10^9/L but no more than 20 % below the baseline pretreatment levels and platelet count ≥20 × 10^9/L or platelets <20 × 10^9/L but no more than 20 % below the baseline pretreatment levels. Anti-emetic prophylaxis including serotonin-receptor antagonist, metoclopramide, or prochloperazine with or without dexamethasone was allowed. […] Dexamethasone 20 mg IV was given early if symptoms of cytokine release syndrome were observed.
Response was assessed by bone marrow (BM) examination on day 21 of cycles 1 and 2, and every 6 weeks thereafter until complete remission or progressive disease (PD). Response was determined according to the revised recommendations of the International Working Group (IWG) for AML [33]. Toxicities were graded according to the National Cancer Institute Common Terminology Criteria for Adverse Events (NCI CTCAE), version 3.0 (http://ctep.cancer.gov/protocolDevelopment/electronic_applications/docs/ctcaev3.pdf). Hematologic and chemistry profiles were monitored on day 1 and 2 of each cycle or until resolution of acute toxicities and subsequently at least once a week or more frequently depending on the individual patient’s needs.

[1] = dinaciclib-related hematologic toxicity

Q: With `CCc1cnn2c(NCc3ccc[n+]([O-])c3)cc(N3CCCC[C@H]3CCO)nc12` [Dinaciclib] as the molecule, how does the “Grade ≥3 fatigue, patients” value (4 patients) read?
A: Its value is 20%.

Q: And the “patients with grade ≥3 treatment-related adverse events” value (15 of 20 patients)?
A: The value was 75%.

Q: And the “TLS-associated hyperkalemia, patients” value (Cairo-Bishop criteria, cycle 1)?
A: The value was 25%.

Q: And the “TLS-associated hyperphosphatemia, patients” value (Cairo-Bishop criteria, cycle 1)?
A: Its value is 30%.

Q: And the “TLS-associated hyperuricemia, patients” value (Cairo-Bishop criteria, cycle 1)?
A: Its value is 10%.

Q: And the “TLS-associated hypocalcemia, patients” value (Cairo-Bishop criteria, cycle 1)?
A: Its value is 25%.

Q: And the “patients with at least one significant TLS-associated laboratory abnormality” value (Cairo-Bishop criteria, cycle 1)?
A: The value was “half of the patients”.

Q: What about the “Acute renal failure, All (%)” value (Cycle 1 n = 20) of the same molecule?
A: Its value is 2 (10) patients (%).

Q: What about the “Acute renal failure, Grade ≥3” value (Cycle 1 n = 20) of the same molecule?
A: Its value is 2 patients.

Q: And the “Anorexia, All (%)” value (Cycle 1 n = 20)?
A: The value was 1 (5) patients (%).

Q: What about the “Bacteremia, All (%)” value (Cycle 1 n = 20) of the same molecule?
A: The value was 2 (10) patients (%).

Q: What about the “Bacteremia, Grade ≥3” value (Cycle 1 n = 20) of the same molecule?
A: The value was 2 patients.

Q: And the “Cytokine release sy, All (%)” value (Cycle 1 n = 20)?
A: The value was 2 (10) patients (%).

Q: And the “Dehydration, All (%)” value (Cycle 1 n = 20)?
A: Its value is 1 (5) patients (%).

Q: And the “Dehydration, Grade ≥3” value (Cycle 1 n = 20)?
A: Its value is 1 patients.

Q: What about the “Diarrhea, All (%)” value (Cycle 1 n = 20) of the same molecule?
A: Its value is 14 (70) patients (%).

Q: What about the “Diarrhea, Grade ≥3” value (Cycle 1 n = 20) of the same molecule?
A: The value was 1 patients.

Q: And the “Fatigue, All (%)” value (Cycle 1 n = 20)?
A: The value was 6 (30) patients (%).

Q: And the “Fatigue, Grade ≥3” value (Cycle 1 n = 20)?
A: The value was 2 patients.

Q: What about the “Hyperbilirubinemia, All (%)” value (Cycle 1 n = 20) of the same molecule?
A: The value was 2 (10) patients (%).

Q: And the “Hyperglycemia, All (%)” value (Cycle 1 n = 20)?
A: The value was 4 (20) patients (%).

Q: And the “Hyperglycemia, Grade ≥3” value (Cycle 1 n = 20)?
A: The value was 2 patients.

Q: What about the “Hyperkalemia, All (%)” value (Cycle 1 n = 20) of the same molecule?
A: The value was 3 (15) patients (%).

Q: And the “Hyperkalemia, Grade ≥3” value (Cycle 1 n = 20)?
A: The value was 2 patients.

Q: And the “Hyperphosphatemia, All (%)” value (Cycle 1 n = 20)?
A: The value was 5 (25) patients (%).

Q: And the “Hyperphosphatemia, Grade ≥3” value (Cycle 1 n = 20)?
A: Its value is 1 patients.

Q: What about the “Hypertension, All (%)” value (Cycle 1 n = 20) of the same molecule?
A: Its value is 1 (5) patients (%).

Q: And the “Hypoalbuminemia, All (%)” value (Cycle 1 n = 20)?
A: The value was 4 (20) patients (%).

Q: And the “Hypocalcemia, All (%)” value (Cycle 1 n = 20)?
A: Its value is 6 (30) patients (%).

Q: What about the “Hypocalcemia, Grade ≥3” value (Cycle 1 n = 20) of the same molecule?
A: Its value is 1 patients.

Q: And the “Hypokalemia, All (%)” value (Cycle 1 n = 20)?
A: The value was 2 (10) patients (%).

Q: And the “Hyponatremia, All (%)” value (Cycle 1 n = 20)?
A: Its value is 2 (10) patients (%).

Q: What about the “Hyponatremia, Grade ≥3” value (Cycle 1 n = 20) of the same molecule?
A: The value was 1 patients.

Q: And the “Hypotension, All (%)” value (Cycle 1 n = 20)?
A: Its value is 6 (30) patients (%).

Q: What about the “Hypotension, Grade ≥3” value (Cycle 1 n = 20) of the same molecule?
A: The value was 1 patients.

Q: What about the “Increased ALT, All (%)” value (Cycle 1 n = 20) of the same molecule?
A: Its value is 4 (20) patients (%).

Q: And the “Increased AST, All (%)” value (Cycle 1 n = 20)?
A: The value was 8 (40) patients (%).

Q: What about the “Increased AST, Grade ≥3” value (Cycle 1 n = 20) of the same molecule?
A: Its value is 3 patients.

Q: What about the “Increased LDH, All (%)” value (Cycle 1 n = 20) of the same molecule?
A: Its value is 2 (10) patients (%).

Q: What about the “Increased LDH, Grade ≥3” value (Cycle 1 n = 20) of the same molecule?
A: The value was 2 patients.

Q: And the “Increased creatinine, All (%)” value (Cycle 1 n = 20)?
A: Its value is 3 (15) patients (%).

Q: And the “Increased creatinine, Grade ≥3” value (Cycle 1 n = 20)?
A: Its value is 1 patients.

Q: What about the “Nausea, All (%)” value (Cycle 1 n = 20) of the same molecule?
A: Its value is 8 (40) patients (%).

Q: And the “Nausea, Grade ≥3” value (Cycle 1 n = 20)?
A: The value was 1 patients.

Q: What about the “Pneumonia, All (%)” value (Cycle 1 n = 20) of the same molecule?
A: The value was 2 (10) patients (%).

Q: What about the “Pneumonia, Grade ≥3” value (Cycle 1 n = 20) of the same molecule?
A: The value was 2 patients.

Q: What about the “Sinus Tachycardia, All (%)” value (Cycle 1 n = 20) of the same molecule?
A: The value was 2 (10) patients (%).

Q: And the “Stomatitis, All (%)” value (Cycle 1 n = 20)?
A: The value was 1 (5) patients (%).

Q: And the “Syncope, All (%)” value (Cycle 1 n = 20)?
A: The value was 1 (5) patients (%).

Q: And the “Syncope, Grade ≥3” value (Cycle 1 n = 20)?
A: The value was 1 patients.

Q: And the “Tumor lysis sy, All (%)” value (Cycle 1 n = 20)?
A: Its value is 3 (15) patients (%).

Q: What about the “Tumor lysis sy, Grade ≥3” value (Cycle 1 n = 20) of the same molecule?
A: The value was 3 patients.

Q: And the “Vomiting, All (%)” value (Cycle 1 n = 20)?
A: The value was 9 (45) patients (%).

Q: And the “Dehydration, All (%)” value (Cycle 2 n = 10)?
A: Its value is 1 (10) patients (%).

Q: And the “Diarrhea, All (%)” value (Cycle 2 n = 10)?
A: The value was 7 (70) patients (%).

Q: What about the “Diarrhea, Grade ≥3” value (Cycle 2 n = 10) of the same molecule?
A: The value was 1 patients.

Q: What about the “Fatigue, All (%)” value (Cycle 2 n = 10) of the same molecule?
A: The value was 2 (20) patients (%).

Q: What about the “Fatigue, Grade ≥3” value (Cycle 2 n = 10) of the same molecule?
A: The value was 1 patients.

Q: What about the “Hyperbilirubinemia, All (%)” value (Cycle 2 n = 10) of the same molecule?
A: The value was 1 (10) patients (%).

Q: And the “Hyperkalemia, All (%)” value (Cycle 2 n = 10)?
A: Its value is 1 (10) patients (%).

Q: What about the “Hyperphosphatemia, All (%)” value (Cycle 2 n = 10) of the same molecule?
A: Its value is 1 (10) patients (%).

Q: And the “Hypoalbuminemia, All (%)” value (Cycle 2 n = 10)?
A: The value was 1 (10) patients (%).

Q: What about the “Hypotension, All (%)” value (Cycle 2 n = 10) of the same molecule?
A: The value was 2 (20) patients (%).

Q: What about the “Increased ALT, All (%)” value (Cycle 2 n = 10) of the same molecule?
A: Its value is 1 (10) patients (%).

Q: What about the “Increased AST, All (%)” value (Cycle 2 n = 10) of the same molecule?
A: The value was 1 (10) patients (%).

Q: And the “Nausea, All (%)” value (Cycle 2 n = 10)?
A: Its value is 3 (30) patients (%).

Q: And the “Pneumonia, All (%)” value (Cycle 2 n = 10)?
A: Its value is 1 (10) patients (%).

Q: And the “Stomatitis, All (%)” value (Cycle 2 n = 10)?
A: The value was 1 (10) patients (%).

Q: And the “Stomatitis, Grade ≥3” value (Cycle 2 n = 10)?
A: The value was 1 patients.

Q: And the “Syncope, All (%)” value (Cycle 2 n = 10)?
A: Its value is 1 (10) patients (%).

Q: What about the “Syncope, Grade ≥3” value (Cycle 2 n = 10) of the same molecule?
A: Its value is 1 patients.

Q: What about the “Vomiting, All (%)” value (Cycle 2 n = 10) of the same molecule?
A: The value was 2 (20) patients (%).

Q: What about the “Anorexia, All (%)” value (Cycle 3 n = 6) of the same molecule?
A: Its value is 1 (17) patients (%).

Q: And the “Cytokine release sy, All (%)” value (Cycle 3 n = 6)?
A: The value was 1 (17) patients (%).

Q: And the “Cytokine release sy, Grade ≥3” value (Cycle 3 n = 6)?
A: The value was 1 patients.

Q: And the “Diarrhea, All (%)” value (Cycle 3 n = 6)?
A: The value was 2 (33) patients (%).

Q: And the “Fatigue, All (%)” value (Cycle 3 n = 6)?
A: The value was 1 (17) patients (%).

Q: What about the “Fatigue, Grade ≥3” value (Cycle 3 n = 6) of the same molecule?
A: The value was 1 patients.

Q: What about the “Hypertension, All (%)” value (Cycle 3 n = 6) of the same molecule?
A: Its value is 1 (17) patients (%).

Q: And the “Increased ALT, All (%)” value (Cycle 3 n = 6)?
A: The value was 1 (17) patients (%).

Q: And the “Nausea, All (%)” value (Cycle 3 n = 6)?
A: The value was 1 (17) patients (%).

Q: And the “Vomiting, All (%)” value (Cycle 3 n = 6)?
A: Its value is 2 (33) patients (%).

Q: What about the “≥grade 3 anemia, patients” value [1] of the same molecule?
A: Its value is 25%.

Q: What about the “≥grade 3 febrile neutropenia, patients” value [1] of the same molecule?
A: The value was 25%.

Q: What about the “≥grade 3 leukopenia, patients” value [1] of the same molecule?
A: Its value is 40%.

Q: What about the “≥grade 3 neutropenia, patients” value [1] of the same molecule?
A: The value was 10%.

Q: What about the “≥grade 3 thrombocytopenia, patients” value [1] of the same molecule?
A: Its value is 20%.

Q: What about the “Grade 1 and 2 diarrhea, patients” value (in vivo) of the same molecule?
A: The value was 70%.

Source: paper PMC3784060 (Cancer Chemotherapy and Pharmacology, 2013)
